Test: relative permittivity at zero frequency (dimensionless)
Conditions: 101.33 kPa, Liquid, Parallel plate capacitor

O=C1CCC1 [cyclobutanone]
Conditions	relative permittivity at zero frequency
243.15 K	17.96
245.65 K	17.81
248.15 K	17.66
250.65 K	17.51
253.15 K	17.37
255.65 K	17.22
258.15 K	17.07
260.65 K	16.93
263.15 K	16.79
265.65 K	16.65
268.15 K	16.51
270.65 K	16.37
273.15 K	16.24
275.65 K	16.11
278.15 K	15.98
280.65 K	15.85
283.15 K	15.72
285.65 K	15.58
288.15 K	15.46
290.65 K	15.33
293.15 K	15.2
295.65 K	15.08
298.15 K	14.96
300.65 K	14.84
303.15 K	14.72
305.65 K	14.6
308.15 K	14.48
310.65 K	14.37
313.15 K	14.25

O=C1CCCCCC1 [cycloheptanone]
Conditions	relative permittivity at zero frequency
245.65 K	15.35
248.15 K	15.22
250.65 K	15.09
253.15 K	14.97
255.65 K	14.85
258.15 K	14.72
260.65 K	14.57
263.15 K	14.47
265.65 K	14.36
268.15 K	14.25
270.65 K	14.14
273.15 K	14.03
275.65 K	13.91
278.15 K	13.8
280.65 K	13.69
283.15 K	13.58
285.65 K	13.46
288.15 K	13.35
290.65 K	13.25
293.15 K	13.14
295.65 K	13.03
298.15 K	12.92
300.65 K	12.82
303.15 K	12.72
305.65 K	12.62
308.15 K	12.51
310.65 K	12.41
313.15 K	12.32

O=C1CCCCC1 [cyclohexanone]
Conditions	relative permittivity at zero frequency
243.15 K	19.75
245.65 K	19.54
248.15 K	19.34
250.65 K	19.13
253.15 K	18.93
255.65 K	18.73
258.15 K	18.54
260.65 K	18.34
263.15 K	18.15
265.65 K	17.96
268.15 K	17.78
270.65 K	17.6
273.15 K	17.42
275.65 K	17.24
278.15 K	17.07
280.65 K	16.9
283.15 K	16.73
285.65 K	16.56
288.15 K	16.4
290.65 K	16.24
293.15 K	16.08
295.65 K	15.92
298.15 K	15.77
300.65 K	15.62
303.15 K	15.46
305.65 K	15.32
308.15 K	15.17
310.65 K	15.03
313.15 K	14.89

O=C1CCCCCCC1 [cyclooctanone]
Conditions	relative permittivity at zero frequency
298.15 K	14.54
303.15 K	14.22
305.65 K	14.05
308.15 K	13.89
310.65 K	13.74
313.15 K	13.57
315.65 K	13.42
318.15 K	13.27
320.65 K	13.14
323.15 K	12.99
325.65 K	12.85
328.15 K	12.71
330.65 K	12.58
333.15 K	12.44
335.65 K	12.3
338.15 K	12.17
340.65 K	12.04
343.15 K	11.9

O=C1CCCC1 [cyclopentanone]
Conditions	relative permittivity at zero frequency
243.15 K	15.66
245.65 K	15.56
248.15 K	15.46
250.65 K	15.36
253.15 K	15.26
255.65 K	15.15
258.15 K	15.05
260.65 K	14.95
263.15 K	14.85
265.65 K	14.75
268.15 K	14.65
270.65 K	14.55
273.15 K	14.45
275.65 K	14.35
278.15 K	14.25
280.65 K	14.15
283.15 K	14.06
285.65 K	13.96
288.15 K	13.86
290.65 K	13.77
293.15 K	13.67
295.65 K	13.58
298.15 K	13.49
300.65 K	13.39
303.15 K	13.3
305.65 K	13.22
308.15 K	13.13
310.65 K	13.04
313.15 K	12.95
